The source of these data is patent US8609852B2, “Thiazolyl mGluR5 antagonists and methods for their use” (Merck Sharp & Dohme Corp., priority 2004, dated 2013).

The conditions of data set [1]: aqueous medium.
The next data set concerns the target hmGluR5 (Homo sapiens (Human), UniProt P41594). As to the kind of experiment: Phosphatidylinositol Hydrolysis (IP) Assay. The data set is classed as cell-based. The conditions noted are these: hmGluR5/L38-20 cells. Here is the method: Inositol phophate assays were performed as described by Berridge et al. (1982) (Berridge et al, (1982) Biochem. J. 206: 587-5950; and Nakajima et al., J. Biol. Chem. 267:2437-2442 (1992)) with slight modifications. Mouse fibroblast Ltk cells expressing hmGluR5 (hmGluR5/L38-20 cells) were seeded in 24-well plates at a density of 8×10^5 cells/well. […] of [^3H]-inositol (Amersham PT6-271; Arlington Heights, Ill.; specific activity=17.7 Ci/mmol) was added to each well and incubated for 16 h at 37° C. Cells were washed twice and incubated for 45 min in 0.5 ml of standard Hepes buffered saline buffer (HBS; 125 mM NaCl, 5 mM KCl, […] MgS04, 1.8 mM CaCl2, 20 mM HEPES, 6 mM glucose, pH to 7.4). The cells were washed with HBS containing 10 mM LiCl, and 400 ill buffer added to each well. Cells were incubated at 37° C. for 20 min. For testing, […], of 10× compounds used in the practice of the invention [made in HBS/LiCl (100 mM)] was added and incubated for 10 minutes. Cells were activated by the addition of […] glutamate, and the plates left for 1 hour at 37° C.
The incubations were terminated by the addition of 1 mL ice-cold methanol to each well. In order to isolate inositol phosphates (IPs), the cells were scraped from wells, and placed in numbered glass test tubes. […] Scintillant was added to each vial, and the vials shaken, and counted in a scintillation counter after 2 hours. […]

Data set [2] addresses metabotropic glutamate receptor subtype 5 (Rattus norvegicus (Rat), UniProt P31424). As to the kind of experiment: [3H]-mGluR5 Antagonist Binding to Rodent Brain Membranes.
Another data set has as its target hmGluR5a receptor (Homo sapiens (Human), UniProt P41594). Put plainly: Calcium Flux Assay. It counts as cell-based. The conditions noted are these: hmGluR5a/L38-20 cells, glutamate-evoked [Ca2+]i. (In general: Calcium assays in cells follow changes in intracellular calcium, usually with a dye or a luminescent sensor.)

SMILES strings stand for the structures.

hmGluR5a receptor, sequence (P41594 other isoform, or with tags, fused parts or gaps): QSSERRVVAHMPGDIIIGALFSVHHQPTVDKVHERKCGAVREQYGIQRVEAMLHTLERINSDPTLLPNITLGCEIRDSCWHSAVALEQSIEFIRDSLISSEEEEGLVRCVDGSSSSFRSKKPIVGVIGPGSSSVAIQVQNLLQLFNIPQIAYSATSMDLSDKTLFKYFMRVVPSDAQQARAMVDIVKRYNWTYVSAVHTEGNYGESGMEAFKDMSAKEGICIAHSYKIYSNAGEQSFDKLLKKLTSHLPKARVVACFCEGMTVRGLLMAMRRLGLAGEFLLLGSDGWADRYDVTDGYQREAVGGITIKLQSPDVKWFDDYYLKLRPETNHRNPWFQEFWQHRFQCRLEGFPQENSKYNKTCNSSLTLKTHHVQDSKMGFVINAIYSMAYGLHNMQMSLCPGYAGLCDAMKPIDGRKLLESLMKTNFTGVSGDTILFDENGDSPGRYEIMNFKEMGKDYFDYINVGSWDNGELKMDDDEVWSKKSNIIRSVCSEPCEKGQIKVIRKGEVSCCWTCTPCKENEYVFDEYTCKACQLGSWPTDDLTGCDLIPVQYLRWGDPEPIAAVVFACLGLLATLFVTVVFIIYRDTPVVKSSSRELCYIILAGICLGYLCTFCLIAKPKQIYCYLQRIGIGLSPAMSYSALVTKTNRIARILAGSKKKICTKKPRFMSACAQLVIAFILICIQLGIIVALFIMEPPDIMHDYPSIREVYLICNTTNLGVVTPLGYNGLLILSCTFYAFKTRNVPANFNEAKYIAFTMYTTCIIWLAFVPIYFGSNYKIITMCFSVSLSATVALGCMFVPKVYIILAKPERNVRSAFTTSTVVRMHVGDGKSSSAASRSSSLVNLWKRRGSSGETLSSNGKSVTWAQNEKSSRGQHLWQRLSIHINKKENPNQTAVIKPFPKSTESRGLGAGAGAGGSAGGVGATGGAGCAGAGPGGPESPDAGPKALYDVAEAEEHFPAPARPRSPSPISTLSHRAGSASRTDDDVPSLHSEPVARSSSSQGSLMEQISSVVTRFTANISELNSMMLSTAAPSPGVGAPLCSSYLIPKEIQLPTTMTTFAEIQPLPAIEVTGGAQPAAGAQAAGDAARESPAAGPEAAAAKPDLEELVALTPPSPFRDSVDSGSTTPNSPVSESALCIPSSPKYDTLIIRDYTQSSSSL
metabotropic glutamate receptor subtype 5, sequence (P31424 21-1203): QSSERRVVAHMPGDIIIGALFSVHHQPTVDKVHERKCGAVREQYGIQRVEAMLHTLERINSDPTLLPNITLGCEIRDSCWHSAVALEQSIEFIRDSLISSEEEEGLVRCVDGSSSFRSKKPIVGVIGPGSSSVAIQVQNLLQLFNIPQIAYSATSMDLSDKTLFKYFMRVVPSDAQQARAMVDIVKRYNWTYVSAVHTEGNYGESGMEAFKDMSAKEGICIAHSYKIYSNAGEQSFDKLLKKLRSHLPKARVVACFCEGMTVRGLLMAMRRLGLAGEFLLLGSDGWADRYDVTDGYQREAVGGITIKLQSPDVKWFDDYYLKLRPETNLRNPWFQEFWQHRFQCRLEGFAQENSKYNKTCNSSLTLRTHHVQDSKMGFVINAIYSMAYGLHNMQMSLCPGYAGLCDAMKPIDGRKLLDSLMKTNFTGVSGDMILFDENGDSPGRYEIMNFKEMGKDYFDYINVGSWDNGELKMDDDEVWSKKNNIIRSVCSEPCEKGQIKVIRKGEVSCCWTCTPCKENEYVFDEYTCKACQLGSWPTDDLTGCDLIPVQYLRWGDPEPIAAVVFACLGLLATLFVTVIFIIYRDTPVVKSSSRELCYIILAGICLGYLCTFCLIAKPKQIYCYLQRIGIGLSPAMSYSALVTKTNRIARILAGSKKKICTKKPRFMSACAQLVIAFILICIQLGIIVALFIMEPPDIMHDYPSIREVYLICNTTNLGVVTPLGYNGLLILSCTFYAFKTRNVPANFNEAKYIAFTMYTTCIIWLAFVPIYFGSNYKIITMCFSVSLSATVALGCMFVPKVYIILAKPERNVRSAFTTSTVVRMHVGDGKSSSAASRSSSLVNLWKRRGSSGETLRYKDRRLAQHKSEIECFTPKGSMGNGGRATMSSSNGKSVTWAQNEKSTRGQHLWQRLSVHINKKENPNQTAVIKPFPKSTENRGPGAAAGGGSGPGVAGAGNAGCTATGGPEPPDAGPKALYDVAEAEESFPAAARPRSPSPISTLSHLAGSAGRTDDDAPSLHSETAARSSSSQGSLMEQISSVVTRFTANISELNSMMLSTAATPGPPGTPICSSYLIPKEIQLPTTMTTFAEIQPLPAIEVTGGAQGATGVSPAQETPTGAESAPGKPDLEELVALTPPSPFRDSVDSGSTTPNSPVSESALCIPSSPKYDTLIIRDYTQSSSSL
hmGluR5, sequence (P41594 other isoform, or with tags, fused parts or gaps): as the sequence (P41594 other isoform, or with tags, fused parts or gaps) above

Take `C(#Cc1nccs1)c1ccccc1.Cc1ccc(S(=O)(=O)O)cc1` [2-(phenylethynl)-1,3-thiazole]: the solubility result in data set [1] is “soluble in aqueous medium”.

For `Cc1nc(C#Cc2ccc(-c3cc(F)cc(C#N)c3)nc2)cs1` [Example 1, 3-fluoro-5-{5-[(2-methyl-1,3-thiazol-4-yl)ethynyl]pyridin-2-yl}benzonitrile], the IC50 (commonly the concentration that gives 50% inhibition) stood at 33 nM against hmGluR5 and 3 nM on hmGluR5a receptor. Besides, in data set [2], the inhibition constant Ki – broadly, the equilibrium dissociation constant of an inhibitor or competing ligand from its target – worked out at 20 nM.

For `Cc1nc(C#Cc2ccc(-n3ccc4ccncc43)nc2)cs1` [Example 18, 1-{5-[(2-methyl-1,3-thiazol-4-yl)ethynyl]pyridin-2-yl}-1H-pyrrolo[2,3-c]pyridine], the IC50 came to 2 nM on hmGluR5 and 4.9 nM at hmGluR5a receptor. Moreover, the Ki in data set [2] is 19.3 nM.

In data set [2], `Cc1nc(C#Cc2cncc(-c3ccccc3CO)c2)cs1` [Example 84] displayed an inhibition constant (Ki) of 7 nM. For the same compound, the half-maximal inhibitory concentration (IC50) at hmGluR5a receptor came out at 2 nM.

As to `Cc1nc(C#Cc2cncc(-c3cccc(C#N)c3)c2)cs1` [Example 85], in data set [2], the affinity corresponds to a Ki of 1 nM. The concentration for half-maximal inhibition (IC50) at hmGluR5a receptor came out at 2 nM.

For the compound `CCCN(C)c1ccc(C#Cc2csc(C)n2)cn1` [Example 86], the inhibition constant (Ki) in data set [2] came to 7 nM. In addition, the IC50 at hmGluR5a receptor was 2 nM.

On to `Cc1nc(C#Cc2ccc(N3CCC(F)CC3)nc2)cs1` [Example 88], for which the Ki in data set [2] came to 4 nM. The 50% inhibitory concentration (IC50) at hmGluR5a receptor came to 2 nM.

Consider `CCOc1ccccc1-c1ccc(C#Cc2csc(C)n2)cn1` [Example 89], for which, in data set [2], the affinity corresponds to a Ki of 2 nM. Besides, the IC50 on hmGluR5a receptor is 1.6 nM.

Consider `Cc1nc(C#Cc2cncc(Cl)c2)cs1` [Example 90], for which the Ki in data set [2] is 4 nM. Besides, the concentration for half-maximal inhibition (IC50) on hmGluR5a receptor came out at 1.5 nM.

Regarding `Cc1nc(C#Cc2cncc(Oc3cccnc3)c2)cs1` [Example 91], in data set [2], the Ki worked out at 1 nM. The half-inhibitory concentration (IC50) at hmGluR5a receptor is 1 nM.

In data set [2], `Cc1nc(C#Cc2cnc(N3CCCC(CO)C3)nc2)cs1` (stereo not drawn) [Example 92] had a Ki of 7 nM. Moreover, the IC50 on hmGluR5a receptor was determined as 12 nM.

With `Cc1nc(C#Cc2cnc(N3CCCCCC3)nc2)cs1` [Example 93], the Ki in data set [2] turned out to be 3 nM. The concentration for half-maximal inhibition (IC50) at hmGluR5a receptor was determined as 11 nM.

Compound `CCC(C)Nc1ncc(C#Cc2csc(C)n2)cn1` (stereo not drawn) [Example 94] displayed a Ki in data set [2] of 6 nM. Moreover, at hmGluR5a receptor, the IC50 turned out to be 9 nM.

Regarding `Cc1nc(C#Cc2cnc(O[C@@H](C)c3ccccc3)nc2)cs1` [Example 95], the affinity in data set [2], expressed as Ki, was 9 nM. In addition, the IC50 on hmGluR5a receptor was 8 nM.

As for `Cc1nc(C#Cc2cnc(N3CCCCC3C)nc2)cs1` (stereo not drawn) [Example 96], the inhibition constant Ki in data set [2] was found to be 5 nM. Moreover, on hmGluR5a receptor, the half-maximal inhibitory concentration (IC50) turned out to be 5 nM.

`Cc1nc(C#Cc2cnc(N3CCCC3)nc2)cs1` [Example 97]: the Ki in data set [2] was 13 nM. At hmGluR5a receptor, the IC50 was 5 nM.

Consider `CCN(CC)c1ncc(C#Cc2csc(C)n2)cn1` [Example 98], for which the affinity in data set [2] corresponds to a Ki of 8 nM. Also, the concentration for half-maximal inhibition (IC50) at hmGluR5a receptor worked out at 4 nM.

Consider `Cc1nc(C#Cc2cnc(-n3ccc4ccncc43)nc2)cs1` [Example 99], for which the affinity in data set [2] corresponds to a Ki of 33 nM. Besides, the 50% inhibitory concentration (IC50) at hmGluR5a receptor turned out to be 2.8 nM.

In turn, `Cc1nc(C#Cc2cnc(N3CCSCC3)nc2)cs1` [Example 100] displayed an inhibitory constant (Ki) in data set [2] of 23 nM. For the same compound, on hmGluR5a receptor, the concentration for half-maximal inhibition (IC50) turned out to be 2.3 nM.

With `Cc1nc(C#Cc2cnc(OC3CCN(C(=O)OC(C)(C)C)CC3)nc2)cs1` [Example 101], in data set [2], the inhibition constant (Ki) was determined as 24 nM. In addition, on hmGluR5a receptor, the IC50 stood at 2 nM.

Regarding `Cc1nc(C#Cc2cnc(NC3CCCC3)nc2)cs1` [Example 102], affinity in data set [2] was put at a Ki of 26 nM. Further, on hmGluR5a receptor, the IC50 is 2 nM.

Compound `Cc1nc(C#Cc2cnc(N3CCCC(C)C3)nc2)cs1` (stereo not drawn) [Example 103] registered a Ki in data set [2] of 1.6 nM. The IC50 on hmGluR5a receptor turned out to be 1.6 nM.

In turn, `Cc1nc(C#Cc2cnc(N3CC=CC3)nc2)cs1` [Example 104] came in with a Ki in data set [2] of 6 nM. For the same compound, the IC50 on hmGluR5a receptor was determined as 1.5 nM.

The compound `Cc1nc(C#Cc2cnc(NC(C)(C)C)nc2)cs1` [Example 105] came in with a Ki in data set [2] of 1 nM. Further, at hmGluR5a receptor, the IC50 was 1 nM.

`Cc1nc(C#Cc2cnc(N3CCCCC3CO)nc2)cs1` (stereo not drawn) [Example 107] came in with an inhibition constant (Ki) in data set [2] of 9 nM. Further, the 50% inhibitory concentration (IC50) at hmGluR5a receptor was 16 nM.
